In US12653894B2, “Degradation of FAK or FAK and ALK by conjugation of FAK and ALK inhibitors with E3 ligase ligands and methods of use” (DANA-FARBER CANCER INSTITUTE, INC., priority 2018, dated 2026):
Like-named read-outs stand apart in the source and are kept apart here.

Legend:
[1] = target: T1, FAK (Homo sapiens, UniProt Q05397); experiment: FAK degradation by immunoblot in H3122 cells; format: cell-based; set-up: endogenous in cells; host or cells: H3122; conditions: 10 nM to 1000 nM, 16 hours (compound 10) or 24 hours (compounds 1, 9)
T1 sequence (Q05397 whole entry): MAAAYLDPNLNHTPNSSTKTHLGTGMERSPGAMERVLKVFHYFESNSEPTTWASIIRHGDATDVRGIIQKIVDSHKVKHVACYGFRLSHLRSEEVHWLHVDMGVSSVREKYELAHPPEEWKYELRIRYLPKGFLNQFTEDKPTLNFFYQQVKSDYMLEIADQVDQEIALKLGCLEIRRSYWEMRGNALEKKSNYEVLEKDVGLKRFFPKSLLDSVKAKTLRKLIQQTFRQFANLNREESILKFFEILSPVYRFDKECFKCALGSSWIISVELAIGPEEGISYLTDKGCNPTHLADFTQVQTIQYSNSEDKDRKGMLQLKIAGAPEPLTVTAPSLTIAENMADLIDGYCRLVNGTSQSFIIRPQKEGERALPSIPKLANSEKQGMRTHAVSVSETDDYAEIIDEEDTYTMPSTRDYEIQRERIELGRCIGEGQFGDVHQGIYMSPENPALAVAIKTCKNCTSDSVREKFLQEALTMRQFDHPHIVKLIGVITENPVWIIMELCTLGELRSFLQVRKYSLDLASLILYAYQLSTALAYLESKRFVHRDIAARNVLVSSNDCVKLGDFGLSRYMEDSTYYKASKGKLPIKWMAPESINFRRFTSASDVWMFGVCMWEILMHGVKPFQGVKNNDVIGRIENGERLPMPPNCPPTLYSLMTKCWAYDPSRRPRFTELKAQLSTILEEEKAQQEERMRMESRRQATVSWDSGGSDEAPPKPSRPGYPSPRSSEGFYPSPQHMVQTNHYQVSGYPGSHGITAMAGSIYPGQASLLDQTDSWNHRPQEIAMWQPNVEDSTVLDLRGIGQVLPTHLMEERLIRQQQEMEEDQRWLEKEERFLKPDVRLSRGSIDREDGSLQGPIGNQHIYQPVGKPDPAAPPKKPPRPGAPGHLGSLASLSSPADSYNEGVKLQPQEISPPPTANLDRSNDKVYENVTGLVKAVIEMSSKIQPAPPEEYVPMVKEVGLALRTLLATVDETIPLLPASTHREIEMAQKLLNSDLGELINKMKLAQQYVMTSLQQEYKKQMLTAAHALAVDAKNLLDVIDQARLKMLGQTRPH

[2] = target: T1, FAK; experiment: FAK degradation by immunoblot in PA-TU-8988T cells; format: cell-based; set-up: endogenous in cells; host or cells: PA-TU-8988T; conditions: for Degradation of FAK protein (in words): 0.1 nM to 1000 nM; for Degradation of FAK protein (in words) / Concentration at which degradation of FAK protein is evident / Concentration of maximal degradation of FAK protein / Concentration giving modest degradation of FAK protein: immunoblot; for inhibition at 0.01 µM / inhibition at 0.1 µM: PaTu 8988t; for inhibition at 0.01 µM: read-out: Degradation at 10 nM; for inhibition at 0.1 µM: read-out: Degradation at 100 nM
Description: (§1) Immunoblotting for FAK was performed to evaluate changes in protein levels upon FAK degrader treatment. All samples were run with equal total protein content and immunoblotting was performed using antibodies that detect total FAK protein as well as GAPDH or α-Tubulin as a loading control. Fluorescently labelled infrared secondary antibodies that enable detection using an Odyssey® CLx Imager was employed to evaluate protein levels.
FAK degraders were evaluated in immunoblot assays to determine the effective dose required to achieve FAK protein loss. Immunoblots for FAK protein were normalized relative to the loading control and percent degradation was evaluated compared to DMSO treatment.

[3] = target: T2, ALK (Homo sapiens, UniProt Q9UM73); experiment: ALK degradation by immunoblot in H3122 cells; format: cell-based; set-up: endogenous in cells; host or cells: H3122; the other entry of the earlier key: EML4 (Q9HC35, Echinoderm microtubule-associated protein-like 4); conditions: 10 nM to 1000 nM, 16 hours (compound 10) or 24 hours (compounds 1, 9)
Target sequence in this assay (Q9UM73 with tags, fused parts or gaps): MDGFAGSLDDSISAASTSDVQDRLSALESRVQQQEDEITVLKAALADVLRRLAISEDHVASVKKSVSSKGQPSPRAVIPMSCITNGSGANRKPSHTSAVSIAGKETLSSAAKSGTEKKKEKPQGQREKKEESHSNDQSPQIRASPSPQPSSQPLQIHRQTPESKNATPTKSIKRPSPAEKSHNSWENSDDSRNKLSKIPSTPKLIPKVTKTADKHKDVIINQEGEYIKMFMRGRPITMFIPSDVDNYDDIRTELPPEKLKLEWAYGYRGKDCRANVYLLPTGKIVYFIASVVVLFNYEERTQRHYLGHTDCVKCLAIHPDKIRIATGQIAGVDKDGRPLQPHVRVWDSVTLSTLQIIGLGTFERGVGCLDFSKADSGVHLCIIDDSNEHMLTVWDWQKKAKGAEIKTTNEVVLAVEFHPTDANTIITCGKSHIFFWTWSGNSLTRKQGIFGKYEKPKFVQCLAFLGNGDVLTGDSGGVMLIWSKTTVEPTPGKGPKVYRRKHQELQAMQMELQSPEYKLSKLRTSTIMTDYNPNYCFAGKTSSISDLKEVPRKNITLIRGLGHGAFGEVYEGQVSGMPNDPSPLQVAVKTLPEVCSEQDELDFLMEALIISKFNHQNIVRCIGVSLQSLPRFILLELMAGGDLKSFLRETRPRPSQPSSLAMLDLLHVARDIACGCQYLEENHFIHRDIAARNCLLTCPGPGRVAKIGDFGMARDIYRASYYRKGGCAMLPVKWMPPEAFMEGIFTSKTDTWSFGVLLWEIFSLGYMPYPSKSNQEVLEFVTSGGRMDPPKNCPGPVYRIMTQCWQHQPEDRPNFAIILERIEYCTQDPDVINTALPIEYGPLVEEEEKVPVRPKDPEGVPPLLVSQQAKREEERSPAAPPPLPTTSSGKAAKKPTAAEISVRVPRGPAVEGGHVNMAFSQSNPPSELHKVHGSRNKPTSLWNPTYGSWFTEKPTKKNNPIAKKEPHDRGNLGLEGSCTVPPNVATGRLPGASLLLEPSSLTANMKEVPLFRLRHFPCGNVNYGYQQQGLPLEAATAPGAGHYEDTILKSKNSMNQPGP
Target sequence in this assay (Q96SW2 whole entry partner): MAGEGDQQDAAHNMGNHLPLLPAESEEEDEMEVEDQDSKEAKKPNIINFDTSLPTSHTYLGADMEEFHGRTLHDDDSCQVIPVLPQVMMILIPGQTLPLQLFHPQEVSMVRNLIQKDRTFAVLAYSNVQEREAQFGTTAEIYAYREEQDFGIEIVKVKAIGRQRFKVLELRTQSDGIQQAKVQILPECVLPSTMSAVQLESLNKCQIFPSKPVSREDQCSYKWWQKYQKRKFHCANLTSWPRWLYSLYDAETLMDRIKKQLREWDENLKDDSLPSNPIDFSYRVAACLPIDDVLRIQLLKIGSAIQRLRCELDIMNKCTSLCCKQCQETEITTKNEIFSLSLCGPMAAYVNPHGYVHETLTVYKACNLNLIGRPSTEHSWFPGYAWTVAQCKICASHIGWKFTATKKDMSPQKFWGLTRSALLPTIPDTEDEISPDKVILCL

[4] = target: T1, FAK; experiment: Rescue of compound 9-induced FAK degradation in PA-TU-8988T cells after pre-treatment; format: cell-based; set-up: endogenous in cells; host or cells: PA-TU-8988T; conditions: pre-treatment 2 hours (0.5 μM carfilzomib, 1.0 μM MLN4924, 10 μM lenalidomide, 10 μM compound 13), then 10 nM compound 9 for 4 hours
Description: as §1, with “PA-TU-8988T cells were treated with FAK degraders or indicated inhibitors for four hours at the indicated doses. After four hours, PA-TU-8988T cells were lysed in radioimmunoprecipitation assay (RIPA) buffer (Thermo Scientific™) on ice for 60 minutes and lysates were clarified by centrifugation. Immunoblotting” for “Immunoblotting”

[5] = target: T2, ALK; experiment: In vitro kinase assay (Life Technologies), ALK; set-up: purchased Life Technologies; conditions: ATP concentration = Km, duplicate; read-out: Biochemical IC50 ALK
Description: (§2) In vitro kinase assays with inventive compound 13 and VS-4718 were performed by Life Technologies™ in duplicate at an ATP concentration=Km for each indicated kinase. The results are summarized in Table 2 and indicate that inventive compound 13 maintained potent FAK activity, with improved activity on ALK as compared to VS-4718.
Target sequence in this assay (Q9UM73 19-1620): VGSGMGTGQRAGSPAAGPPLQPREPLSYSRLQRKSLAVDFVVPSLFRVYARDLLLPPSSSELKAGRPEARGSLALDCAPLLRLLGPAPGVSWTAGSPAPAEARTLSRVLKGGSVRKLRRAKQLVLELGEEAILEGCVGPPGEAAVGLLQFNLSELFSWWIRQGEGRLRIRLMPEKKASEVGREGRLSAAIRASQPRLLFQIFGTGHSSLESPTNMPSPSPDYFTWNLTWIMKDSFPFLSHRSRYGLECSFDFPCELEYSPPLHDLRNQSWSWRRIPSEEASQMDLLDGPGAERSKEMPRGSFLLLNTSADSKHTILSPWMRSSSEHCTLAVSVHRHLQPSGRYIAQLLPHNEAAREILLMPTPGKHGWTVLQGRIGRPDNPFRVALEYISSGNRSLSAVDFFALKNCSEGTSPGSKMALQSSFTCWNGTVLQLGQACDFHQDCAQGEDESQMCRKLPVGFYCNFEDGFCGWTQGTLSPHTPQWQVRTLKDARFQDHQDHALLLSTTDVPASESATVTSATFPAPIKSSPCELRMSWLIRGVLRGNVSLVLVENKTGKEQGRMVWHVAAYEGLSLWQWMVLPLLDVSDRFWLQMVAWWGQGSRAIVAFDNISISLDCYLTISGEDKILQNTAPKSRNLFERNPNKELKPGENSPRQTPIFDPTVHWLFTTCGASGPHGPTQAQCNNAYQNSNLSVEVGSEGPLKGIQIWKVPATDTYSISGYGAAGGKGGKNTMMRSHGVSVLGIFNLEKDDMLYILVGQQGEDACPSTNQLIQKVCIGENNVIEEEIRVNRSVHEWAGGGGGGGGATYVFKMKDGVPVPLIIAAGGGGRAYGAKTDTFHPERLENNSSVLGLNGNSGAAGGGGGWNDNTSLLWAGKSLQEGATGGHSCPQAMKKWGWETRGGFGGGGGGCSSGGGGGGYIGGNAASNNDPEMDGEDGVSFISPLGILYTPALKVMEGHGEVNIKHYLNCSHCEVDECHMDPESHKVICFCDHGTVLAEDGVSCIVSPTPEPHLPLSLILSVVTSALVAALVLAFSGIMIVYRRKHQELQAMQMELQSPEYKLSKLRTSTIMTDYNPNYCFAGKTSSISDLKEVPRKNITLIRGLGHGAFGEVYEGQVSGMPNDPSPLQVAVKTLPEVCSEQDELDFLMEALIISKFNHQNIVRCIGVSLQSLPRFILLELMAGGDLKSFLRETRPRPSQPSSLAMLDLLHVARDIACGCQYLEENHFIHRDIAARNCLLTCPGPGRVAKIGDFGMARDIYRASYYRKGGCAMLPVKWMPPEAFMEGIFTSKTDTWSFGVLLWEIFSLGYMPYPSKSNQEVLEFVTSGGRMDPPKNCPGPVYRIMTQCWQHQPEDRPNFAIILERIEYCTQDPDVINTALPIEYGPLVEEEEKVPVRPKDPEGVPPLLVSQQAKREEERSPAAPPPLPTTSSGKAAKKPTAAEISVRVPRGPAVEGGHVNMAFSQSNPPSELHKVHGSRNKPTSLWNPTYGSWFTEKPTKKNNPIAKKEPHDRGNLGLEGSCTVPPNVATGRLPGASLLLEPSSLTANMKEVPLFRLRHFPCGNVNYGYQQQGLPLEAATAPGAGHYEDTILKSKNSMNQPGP

[6] = target: T1, FAK; experiment: In vitro kinase assay (Life Technologies), FAK; conditions: ATP concentration = Km, duplicate; read-out: Biochemical IC50 FAK
Description: as §2

[7] = total FAK protein, PA-TU-8988T cells, 10 nM, 4 hours, vs DMSO
[8] = total FAK protein, PA-TU-8988T cells, 100 nM, 4 hours, vs DMSO

| Concentration at which degradation of FAK protein is evident ([2]; PA-TU-8988T cells, 4 hours) [nM] | Concentration of maximal degradation of FAK protein ([2]; PA-TU-8988T cells, 4 hours) [nM] | inhibition at 0.01 µM [2, 7] [%] | inhibition at 0.1 µM [2, 8] [%] | Molecule | other results |
| --- | --- | --- | --- | --- | --- |
| 10 | 100 | 85 to 100 | 85 to 100 | CNC(=O)c1ccccc1Nc1cc(Nc2ccc(N3CCN(CCCCCCCCNc4cccc5c4C(=O)N(C4CCC(=O)NC4=O)C5=O)CC3)cc2OC)ncc1C(F)(F)F (stereo not drawn) [Compound 6, 2-((2-((4-(4-(8-((2-(2,6-dioxopiperidin-3-yl)-1,3-dioxoisoindolin-4-yl)amino)octyl)piperazin-1-yl)-2-methoxyphenyl)amino)-5-(trifluoromethyl)pyridin-4-yl)amino)-N-methylbenzamide] |  |
| 10 | 100 | 25 to 49 | 85 to 100 | CS(=O)(=O)c1cccc(CNc2nc(Nc3ccc(C(=O)NCCCCCCCCNC(=O)COc4cccc5c4C(=O)N(C4CCC(=O)NC4=O)C5=O)cc3)ncc2C(F)(F)F)c1 (stereo not drawn) [Compound 7, N-(8-(2-((2-(2,6-dioxopiperidin-3-yl)-1,3-dioxoisoindolin-4-yl)oxy)acetamido)octyl)-4-((4-((3-(methylsulfonyl)benzyl)amino)-5-(trifluoromethyl)pyrimidin-2-yl)amino)benzamide] |  |

More lines, now with the values behind:

| Molecule | Concentration at which degradation of FAK protein is evident ([2]; PA-TU-8988T cells, 4 hours) [nM] | Concentration of maximal degradation of FAK protein ([2]; PA-TU-8988T cells, 4 hours) [nM] | inhibition at 0.01 µM [2, 7] [%] | inhibition at 0.1 µM [2, 8] [%] | other results |
| --- | --- | --- | --- | --- | --- |
| CNC(=O)c1ccccc1Nc1cc(Nc2ccc(N3CCN(CCCCCCNC(=O)COc4cccc5c4C(=O)N(C4CCC(=O)NC4=O)C5=O)CC3)cc2OC)ncc1C(F)(F)F (stereo not drawn) [Compound 1, 2-((2-((4-(4-(6-(2-((2-(2,6-dioxopiperidin-3-yl)-1,3-dioxoisoindolin-4-yl)oxy)acetamido)hexyl)piperazin-1-yl)-2-methoxyphenyl)amino)-5-(trifluoromethyl)pyridin-4-yl)amino)-N-methylbenzamide] | 1 | 10 | 85 to 100 | 85 to 100 | Degradation of FAK protein in H3122 cells (in words) [1]: pronounced degradation of FAK protein; Degradation of FAK protein (in words) ([2]; PA-TU-8988T cells, 4 hours): rapid and pronounced degradation of FAK protein |
| CNC(=O)c1ccccc1Nc1cc(Nc2ccc(N3CCN(CCCCCCNC(=O)COc4cccc5c4C(=O)N(C4CCC(=O)N(C)C4=O)C5=O)CC3)cc2OC)ncc1C(F)(F)F (stereo not drawn) [Compound 2, 2-((2-((2-methoxy-4-(4-(6-(2-((2-(1-methyl-2,6-dioxopiperidin-3-yl)-1,3-dioxoisoindolin-4-yl)oxy)acetamido)hexyl)piperazin-1-yl)phenyl)amino)-5-(trifluoromethyl)pyridin-4-yl)amino)-N-methylbenzamide] |  |  | 0 to 24 | 0 to 24 | Degradation of FAK protein (in words) ([2]; PA-TU-8988T cells, 4 hours): did not induce degradation of FAK protein |
| CNC(=O)c1ccccc1Nc1cc(Nc2ccc(N3CCN(CCOCCOCCOCCNC(=O)COc4cccc5c4C(=O)N(C4CCC(=O)NC4=O)C5=O)CC3)cc2OC)ncc1C(F)(F)F (stereo not drawn) [Compound 3, 2-((2-((4-(4-(1-((2-(2,6-dioxopiperidin-3-yl)-1,3-dioxoisoindolin-4-yl)oxy)-2-oxo-6,9,12-trioxa-3-azatetradecan-14-yl)piperazin-1-yl)-2-methoxyphenyl)amino)-5-(trifluoromethyl)pyridin-4-yl)amino)-N-methylbenzamide] |  |  | 50 to 69 | 85 to 100 | Concentration giving modest degradation of FAK protein ([2]; PA-TU-8988T cells, 4 hours): 100 nM |
| CNC(=O)c1ccccc1Nc1cc(Nc2ccc(N3CCN(CCOCCOCCNC(=O)CNc4cccc5c4C(=O)N(C4CCC(=O)NC4=O)C5=O)CC3)cc2OC)ncc1C(F)(F)F (stereo not drawn) [Compound 4, 2-((2-((4-(4-(2-(2-(2-(2-((2-(2,6-dioxopiperidin-3-yl)-1,3-dioxoisoindolin-4-yl)amino)acetamido)ethoxy)ethoxy)ethyl)piperazin-1-yl)-2-methoxyphenyl)amino)-5-(trifluoromethyl)pyridin-4-yl)amino)-N-methylbenzamide] | 10 | 100 | 70 to 84 | 85 to 100 |  |
| CNC(=O)c1ccccc1Nc1cc(Nc2ccc(N3CCN(CCCCCCCCNC(=O)CNc4cccc5c4C(=O)N(C4CCC(=O)NC4=O)C5=O)CC3)cc2OC)ncc1C(F)(F)F (stereo not drawn) [Compound 5, 2-((2-((4-(4-(8-(2-((2-(2,6-dioxopiperidin-3-yl)-1,3-dioxoisoindolin-4-yl)amino)acetamido)octyl)piperazin-1-yl)-2-methoxyphenyl)amino)-5-(trifluoromethyl)pyridin-4-yl)amino)-N-methylbenzamide] | 1 | 10 |  |  |  |
| CS(=O)(=O)c1cccc(CNc2nc(Nc3ccc(C(=O)N4CCN(CCCCCNC(=O)COc5cccc6c5C(=O)N(C5CCC(=O)NC5=O)C6=O)CC4)cc3)ncc2C(F)(F)F)c1 (stereo not drawn) [Compound 8, 2-((2-(2,6-dioxopiperidin-3-yl)-1,3-dioxoisoindolin-4-yl)oxy)-N-(5-(4-(4-((4-((3-(methylsulfonyl)benzyl)amino)-5-(trifluoromethyl)pyrimidin-2-yl)amino)benzoyl)piperazin-1-yl)pentyl)acetamide] |  | 100 |  |  | Concentration giving modest degradation of FAK protein ([2]; PA-TU-8988T cells, 4 hours): 10 nM; inhibition at 0.01 µM ([2]; 4 h): 0 to 24%; inhibition at 0.1 µM ([2]; 4 h): 25 to 49% |
| CNC(=O)c1ccccc1Nc1nc(Nc2cc(C)c(C3CCN(CCCCCCNC(=O)COc4cccc5c4C(=O)N(C4CCC(=O)NC4=O)C5=O)CC3)cc2OC(C)C)ncc1C(F)(F)F (stereo not drawn) [Compound 10, 2-((2-((4-(1-(6-(2-((2-(2,6-dioxopiperidin-3-yl)-1,3-dioxoisoindolin-4-yl)oxy)acetamido)hexyl)piperidin-4-yl)-2-isopropoxy-5-methylphenyl)amino)-5-(trifluoromethyl)pyrimidin-4-yl)amino)-N-methylbenzamide] |  |  |  |  | Degradation of FAK protein in H3122 cells (in words) [1]: pronounced degradation of FAK protein; Degradation of ALK protein in H3122 cells (in words) [3]: degradation of ALK protein |
| NS(=O)(=O)OC[C@@H]1C[C@@H](n2ccc3c(N[C@H]4CCc5ccccc54)ncnc32)C[C@@H]1O [MLN4924] |  |  |  |  | Rescue of FAK degradation induced by compound 9 [4]: rescued the degradation induced by compound 9 |
| CNC(=O)c1ccccc1Nc1cc(Nc2ccc(N3CCOCC3)cc2OC)ncc1C(F)(F)F [VS-4718, reference compound] |  |  |  |  | IC50 [5]: 41.1 nM; IC50 [6]: 20 nM; Degradation of FAK protein (in words) ([2]; PA-TU-8988T cells, 4 hours): did not induce degradation of FAK protein |
| CC(C)C[C@H](NC(=O)[C@H](CCc1ccccc1)NC(=O)CN1CCOCC1)C(=O)N[C@@H](Cc1ccccc1)C(=O)N[C@@H](CC(C)C)C(=O)[C@@]1(C)CO1 [carfilzomib] |  |  |  |  | Rescue of FAK degradation induced by compound 9 [4]: rescued the degradation induced by compound 9 |
| Nc1cccc2c1CN(C1CCC(=O)NC1=O)C2=O (stereo not drawn) [lenalidomide] |  |  |  |  | Rescue of FAK degradation induced by compound 9 [4]: rescued the degradation induced by compound 9 |
| PF-573228 [reference compound] |  |  |  |  | Degradation of FAK protein (in words) ([2]; PA-TU-8988T cells, 4 hours): did not induce degradation of FAK protein |
